Where two headings read alike, the source gives them in different places.
Columns and labels:
hCB1 receptor [1] = molecular target: T1, hCB1 receptor (Homo sapiens, UniProt P21554); test: competitive ligand binding assay with [3H]-CP-55,940 on hCB1 membrane preparations of HEK293-EBNA cells
T1 construct: purchased Perkin Elmer; host or cells: HEK293-EBNA

hCB1 receptor [2] = molecular target: T1, hCB1 receptor; parameters: method as in earlier work; conditions: read-out: Ki at hCB1; comparable assay setup; ref 31 (Schoeder et al.); cited from earlier work

T1 sequence (P21554 whole entry): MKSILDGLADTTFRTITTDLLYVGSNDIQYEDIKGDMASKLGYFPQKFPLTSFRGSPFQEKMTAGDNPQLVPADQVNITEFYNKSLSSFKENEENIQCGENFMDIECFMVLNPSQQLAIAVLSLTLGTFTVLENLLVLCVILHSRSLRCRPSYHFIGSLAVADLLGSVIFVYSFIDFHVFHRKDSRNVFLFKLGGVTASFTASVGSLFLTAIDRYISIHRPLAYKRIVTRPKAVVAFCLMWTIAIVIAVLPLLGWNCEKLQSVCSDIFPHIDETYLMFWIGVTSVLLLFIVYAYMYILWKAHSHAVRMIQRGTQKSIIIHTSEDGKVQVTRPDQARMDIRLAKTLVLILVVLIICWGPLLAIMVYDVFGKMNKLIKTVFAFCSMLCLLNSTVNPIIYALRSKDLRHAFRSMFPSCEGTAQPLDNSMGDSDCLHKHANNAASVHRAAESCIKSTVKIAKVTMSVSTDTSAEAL

SMILES	IC50 (hCB1 receptor [1])	Ki (hCB1 receptor [1])	rank of Ki among the chloro analogues (hCB1 receptor [1]; comparison of the substitution positions)	Ki (hCB1 receptor [2])
COC(=O)[C@@H](NC(=O)c1cn(CC2CCCCC2)c2ccc(Cl)cc12)C(C)(C)C [5-Chloro-MDMB-CHMICA, Methyl (S)-2-(5-chloro-1-(cyclohexylmethyl)-1H-indole3-carboxamido)-3,3-dimethylbutanoate]	402 nM	9.81 nM		
COC(=O)[C@@H](NC(=O)c1cn(CC2CCCCC2)c2cc(Cl)ccc12)C(C)(C)C [6-Chloro-MDMB-CHMICA, Methyl (S)-2-(6-chloro-1-(cyclohexylmethyl)-1H-indole-3-carboxamido)-3,3-dimethylbutanoate]	31.6 nM	0.77 nM		
COC(=O)[C@@H](NC(=O)c1c(Cl)n(CC2CCCCC2)c2ccccc12)C(C)(C)C [2-Chloro-MDMB-CHMICA, Methyl (S)-2-(2-chloro-1-(cyclohexylmethyl)-1H-indole-3-carboxamido)-3,3-dimethylbutanoate]	23.6 nM	0.58 nM	lowest Ki value	
COC(=O)[C@@H](NC(=O)c1cn(CC2CCCCC2)c2c(Cl)cccc12)C(C)(C)C [7-Chloro-MDMB-CHMICA, Methyl (S)-2-(7-chloro-1-(cyclohexylmethyl)-1H-indole-3-carboxamido)-3,3-dimethylbutanoate]	28.8 nM	0.7 nM		
COC(=O)C(NC(=O)c1cn(CC2CCCCC2)c2ccccc12)C(C)(C)C (stereo not drawn) [MDMB-CHMICA, Methyl 2-[[1-(cyclohexylmethyl)-1H-indole-3-carbonyl]amino]-3,3-dimethylbutanoate]		0.951 nM		0.41 ± 0.141 nM
CCCCCn1cc(C(=O)c2cccc3ccccc23)c2ccccc21 [JWH-018, naphthalen-1-yl(1-pentyl-1H-indol-3-yl)methanone, reference compound]	103 nM	2.69 nM		
COC(=O)[C@@H](NC(=O)c1cn(CC2CCCCC2)c2cccc(Cl)c12)C(C)(C)C [4-Chloro-MDMB-CHMICA, Methyl (S)-2-(4-chloro-1-(cyclohexylmethyl)-1H-indole-3-carboxamido)-3,3-dimethylbutanoate]	268 nM	6.55 nM		

From PMC11592078, “Synthesis, Analytical Characterization, and Human CB1 Receptor Binding Studies of the Chloroindole Analogues of the Synthetic Cannabinoid MDMB-CHMICA” (Biomolecules, 2024)
